Test results taken from patent publication US11241455B2, “Methods of treating disease by metabolic control of T-cell differentiation” (The J. David Gladstone Institutes, a testamentary trust …, priority 2016, dated 2022).

Columns and labels:
Got1 = target: T1, Got1 (Mus musculus, UniProt P05201); experiment: Retroviral shRNA knockdown of Got1 in differentiating TH17 cells, intracellular staining of FOXP3 and IL-17; format: cell-based; details: sorted GFP+ cells, TH17 condition, day 6; versus empty vector or GFP− cells
T1 construct: Got1 was knocked down in differentiating TH17 cells with retrovirus containing GFP and shRNA against Got1; endogenous in cells; host or cells: primary mouse CD4 naive T cells differentiated under TH17 conditions
T1 sequence (P05201 whole entry): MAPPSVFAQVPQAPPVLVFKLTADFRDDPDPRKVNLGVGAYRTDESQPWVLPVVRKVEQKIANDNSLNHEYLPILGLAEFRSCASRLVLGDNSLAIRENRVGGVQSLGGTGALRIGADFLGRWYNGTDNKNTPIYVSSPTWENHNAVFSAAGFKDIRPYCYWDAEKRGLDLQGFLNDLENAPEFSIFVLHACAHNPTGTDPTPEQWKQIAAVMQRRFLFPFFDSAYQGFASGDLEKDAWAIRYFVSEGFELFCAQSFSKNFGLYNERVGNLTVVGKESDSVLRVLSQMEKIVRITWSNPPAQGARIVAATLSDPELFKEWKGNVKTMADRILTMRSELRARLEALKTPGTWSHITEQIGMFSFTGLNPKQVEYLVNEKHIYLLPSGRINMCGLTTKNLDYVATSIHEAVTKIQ
Procedure: (§1) Short hairpin RNAs (ShRNAs) (synthesized DNA oligos), after annealing, were cloned into PMKO.1-GFP retrovirus vector. The plasmids and pCL-ECO (1:1) were transfected into 293T cells with Fugene® HD4 (Promega). The medium was changed 6 hours after transfection, and the cells were further cultured for 48-72 hours. The supernatant was then collected and filtered using […]. The supernatant containing the viruses was added into pre-activated CD4+ T cells (20 hours after initial plating). The cells were spin-infected at 1000 g for 2 hours and cultured in incubator for another 2 hours. The cells were washed and cultured under TH17 conditions for an additional 4 days. New medium was added if necessary. At day 5, the cells were collected for sorting GFP+ cells and GFP− cells. Sorted cells were further cultured until day 6, and re-stimulated for intracellular staining or mRNA analysis, as described above.

[1] = tested on: differentiating TH17 cells; experiment: TH17 differentiation of CD4 naïve T cells (IL17F-RFP/FOXP3-GFP reporter or intracellular staining of IL-17 and FOXP3); format: cell-based, mouse; details: for rescue of the inhibitory effect of AOA on TH17 cell differentiation: in the presence of AOA, day 6, 0.75 mM α-KG, 0.5 mM 2-HG, 0.5 mM succinate, 50 μM fumarate, 0.5 mM malate, 0.5 mM citrate, 1 mM NAC, 1 mM GSH
Procedure: (§2) CD4 naïve T cells (CD4+CD25-CD62^highCD44^low) were obtained from interleukin (IL)-17F-red fluorescent protein (RFP)/FOXP3-green fluorescent protein (GFP) mice, which were characterized previously, or wild-type C57/BL6 mice, by cell sorting. 0.4 million cells were plated into 48 wells coated with anti-mouse CD3 (clone 145-2C11, eBioscience) […] and anti-mouse CD28 (clone 37.51, eBioscience) (1 μg/ml). The differentiation media for these naïve T cells was as follows: 0.5 ng/ml (or indicated) transforming growth factor (TGF) β, 200 U/ml mouse IL-2, 2 μg/ml anti-interferon (IFN) γ and 2 μg/ml anti-mouse IL4 for differentiation into iTreg cells; and 2.5 ng/ml TGFβ, 10 ng/ml mouse IL-1β, 10 ng/ml mouse IL-6, 10 ng/ml mouse IL-23, 2 μg/ml anti-mouse IFNγ, and anti-mouse IL-4 for differentiating into TH17 cells. The cells were supplemented with new medium at day 4. In cases in which small-molecule compounds were present, the fresh medium containing the same concentration of compounds was used. When necessary, the individual metabolite was added into the T-cell culture 6 hours later after initial cell plating. On day 6, the cells were analyzed for IL17F-RFP and FOXP3-GFP or the cells were collected and restimulated for 4-6 hours with PMA, inomycin, and Golgi-stop for intracellular staining in absence of indicated compounds.
To identify small molecules that regulate cell-fate switching of TH17/iTreg cells and to further understand the regulation of the TH17/iTreg balance, 10,000 individual small molecules were phenotypically screened using CD4 naïve T cells from IL-17F-RFP/FOXP3-GFP mice. The naïve T cells were cultured under optimal TH17 differentiation conditions and compounds that could reprogram TH17 differentiation toward iTreg cell fate were identified using the reporter readout. Briefly, after TH17 differentiation for 24 hours, compounds were added to TH17 culture, and the treatment was continued for an additional 5 days before the cells were analyzed for IL17F-RFP and FOXP3-GFP expression by high-throughput fluorescence-activated cell sorting (FACS) (FIG. 5a). […] This effect of reprogrammed differentiation was further confirmed by intracellular immunostaining of IL-17 and FOXP3 (FIG. 1a).

[2] = tested on: differentiating iTreg cells; experiment: iTreg differentiation of CD4 naïve T cells (FOXP3-GFP reporter or intracellular staining of FOXP3); format: cell-based, mouse; details: for reversal of the enhancing effect of AOA on iTreg cell differentiation: in the presence of AOA, day 5, 0.5 mM α-KG, 0.125 mM 2-HG (0.25 mM in FIG. 2g), 0.5 mM succinate, 50 μM fumarate, 0.5 mM malate, 0.5 mM citrate
Procedure: as §2, with “On day 6, the cells were analyzed for IL17F-RFP and FOXP3-GFP or the cells were collected and restimulated for 4-6 hours with PMA, inomycin, and Golgi-stop for intracellular staining in absence of indicated compounds.” left out

[3] = tested on: FOXP3, Il17, Il17f, and Rorc mRNA in TH17 cells; experiment: mRNA expression analysis by qRT-PCR in TH17 cells; format: cell-based, mouse; details: normalized to β-actin
Procedure: (§3) At the end of differentiation (day 6), T cells were re-stimulated with plate-coated anti-CD3 and anti-CD28 for 5 hours in the absence of any small-molecule compounds or metabolites. Quantitative reverse transcriptase polymerase chain reaction (qRT-PCR) was performed to evaluate mRNA expression of FOXP3, Il17, Il17f, and Rorc. For differentiating TH17 or iTreg cells, cells were collected on day 2.5 or at the indicated time for mRNA expression analysis. The expression was normalized to β-actin.

[4] = tested on: FOXP3 mRNA in iTreg cells; experiment: mRNA expression analysis by qRT-PCR in iTreg cells; format: cell-based, mouse; details: normalized to β-actin
Procedure: as §3

[5] = tested on: FOXP3 promoter and its intronic CpG island; experiment: Methylation analysis by bisulfite sequencing, T cells under TH17 condition; format: cell-based, mouse; details: 0.5 mM dimethyl R-2-HG (day 4) or AOA (day 6), male mice
Procedure: (§4) The method is essentially the same as described previously (Kim, et al. J Exp Med 204 (7), 1543-1551 (2007)). Briefly, genomic DNA was purified with Blood & Cell Culture DNA Midi Kit (Qiagen). Bisufite conversion of genomic DNA was performed using Epitect® bisulfite kit (Qiagen), according to the manufacture's instruction. The PCR product was run on 2% agarose, purified and cloned using TOPO® TA Cloning® Kit with PCR®4. Clones are picked for Sanger sequencing.

[6] = tested on: FOXP3 promoter and its intronic CpG island; experiment: Methylation analysis by bisulfite sequencing, T cells under iTreg condition; format: cell-based, mouse; details: iTreg condition (day 5); 0.5 mM dimethyl R-2-HG or AOA; male mice
Procedure: as §4

IDH1 and IDH2 = experiment: Retroviral shRNA knockdown of IDH1 and/or IDH2 in T cells under TH17 condition, intracellular staining of IL-17 and FOXP3; format: cell-based, mouse; details: sorted GFP+ cells cultured under TH17 condition
Procedure: as §1
2-HG, which was originally identified in cancer cells harboring isocitrate dehydrogenase (IDH) 1/2 mutation, is also known to be produced via wild-type IDH1 and IDH2 reactions as well. Among all the dehydrogenases examined in this study, only IDH1 and 2 are highly expressed in differentiating TH17 cells (FIGS. 10a, 10d). […] GFP+ cells and GFP− cells were sorted and analyzed by intracellular staining of IL-17 and FOXP3.

IDH1 and/or IDH2 mRNA = experiment: mRNA expression of IDH1 and IDH2 in shRNA-infected GFP+ cells; format: cell-based, mouse; details: GFP+ cells re-stimulated with anti-CD3 and anti-CD28; normalized to β-actin
Procedure: as §3
as §1, with “Sorted cells were further cultured until day 6, and re-stimulated for intracellular staining or mRNA analysis, as described above.” left out

[7] = re-stimulated with anti-CD3 and anti-CD28 for 5 hours

Compound	percentage of IL17+ cells (Got1)	proportion of FOXP3+ cells (Got1)	rescue of the inhibitory effect of AOA on TH17 cell differentiation [1]	reversal of the enhancing effect of AOA on iTreg cell differentiation [2]	reduction of the percentage of IL-17 producing cells (IDH1 and IDH2)	mRNA expression of IDH1 and/or IDH2 (IDH1 and/or IDH2 mRNA)	further results
GOT1-1: shRNA targeting GOT1 (SEQ ID NO: 47) in PMKO.1-GFP retrovirus vector (CCGGCCACATGAGAAGACGTTTCTTCTCGAGAAGAAACGTCTTCTCATGTGGTTTTTG)	reduced	reciprocally increased					
COC(=O)CC[C@@H](O)C(=O)OC [Dimethyl R-2-HG, (R)-dimethyl 2-hydroxyglutarate]			rescued the inhibitory effect of AOA on TH17 differentiation	reversed its enhancing effect on iTreg differentiation			direct effect on TH17 cell differentiation (IL-17/IL-17F and FOXP3 expression) ([1]; in the absence of AOA, exogenously added dimethyl metabolite): directly promoted TH17 cell differentiation by up-regulating IL-17/IL-17F expression and down-regulating FOXP3 expression in a dose-dependent manner; FOXP3 expression under iTreg condition ([2]; in the absence of AOA, analyzed on day 5): inhibited FOXP3 expression; FOXP3 mRNA expression [3]: suppressed FOXP3 mRNA expression; Il17/Il17f mRNA level [3, 7]: increased Il17/Il17f mRNA; Rorc mRNA level [3, 7]: did not affect Rorc mRNA; FOXP3 mRNA expression [4]: suppressed FOXP3 mRNA expression; methylation level of FOXP3 promoter and its intronic CpG island [5]: dramatically increase methylation level; methylation level of FOXP3 promoter and its intronic CpG island [6]: dramatically increase methylation level
shRNA against IDH1: shRNA targeting IDH1 (SEQ ID NO: 49) in PMKO.1-GFP retrovirus vector (CCGGCCTGGGCTTAGAATGAGTCTTCTCGAGAAGACTCATTCTAAGCCCAGGTTTTTG)					approximately 30%	efficiently suppressed the mRNA expression	
shRNA against IDH2: shRNA targeting IDH2 (SEQ ID NO: 50) in PMKO.1-GFP retrovirus vector (CCGGGAAGAGTTCAAGCTGAAGAAACTCGAGTTTCTTCAGCTTGAACTCTTCTTTTTG)					approximately 30%	efficiently suppressed the mRNA expression	
GOT1-2: shRNA targeting GOT1 (SEQ ID NO: 48) in PMKO.1-GFP retrovirus vector (CCGGGTCGAACAGAAGATTGCTAATCTCGAGATTAGCAATCTTCTGTTCGACTTTTTG)	reduced	reciprocally increased					
COC(=O)CCC(=O)C(=O)OC [dimethyl-α-KG]			rescued the inhibitory effect of AOA on TH17 differentiation	reversed its enhancing effect on iTreg differentiation			
